# Patent US6322532A, “Sonophoresis method and apparatus” (3M Innovative Properties Company, priority 1999, dated 2001)
# Assay: Franz diffusion cell permeation of salicylic acid across cadaver skin with/without flexure mode sonophoresis transducer
# Design: species or system human
# Description: A similar experiment to that described in Example 1 was carried out using salicylic acid. […] About 20 ml donor solution (ppb) with excess (beyond solubility levels) of salicylic acid was added to the upper portion of the Franz cells atop the cadaver skin.
smiles,measurement,setting,value
O=C(O)c1ccccc1O [salicylic acid],average sonophoretic drug flux,"active cells, about 2 W/cm^2, about 27 kHz, about 200 V (rms), continuous duty cycle, about 7 cm^2 cadaver skin, first few hours",about 700 micrograms/cm^2 /hr
same,average passive drug flux,"four passive cells, no sonophoresis transducer, 2 cm^2 cadaver skin, 10 ml receptor fluid, 5 hr experiment",about 200 micrograms/cm^2 /hr
